Assay results reported in patent publication US20230062119A1, “USE OF BIOMARKERS IN IDENTIFYING PATIENTS THAT WILL BE RESPONSIVE TO TREATMENT WITH A PRMT5 INHIBITOR” (Merck Sharp & Dohme LLC, priority 2019, published 2023).
Where two headings read alike, the source gives them in different places.

Target: T1, Full-length (FL)-PRMT5-MEP50 enzyme complex (Homo sapiens, UniProt O14744)
T1 construct: Full-length (FL)-PRMT5-MEP50 enzyme complex (recombinant proteins from baculovirus-transfected Sf21 cells: FL-PRMT5; MW=73837 kDa and FL-MEP50; MW=38614); made in house; host or cells: baculovirus-transfected Sf21 insect cells
Assay: PRMT5-MEP50 Enzyme Methylation Assay
Format: biochemical
Conditions: 1.0 nM PRMT5-MEP50, 75 nM biotinylated peptide, 15 μM SAM
Protocol: PRMT5-MEP50 biochemical assay is a direct measurement of the methylation activity of the enzyme complex on a short peptide substrate derived from the N-terminus of H4 histone. Methylation experiment is performed with recombinant PRMT5-MEP50 protein complex. The assessment of inhibitory effect of small molecules is measured by the effectiveness of the compounds to inhibit this reaction (EC50).
In this assay, the potency (EC50) of each compound was determined from a twenty-point (1:2 serial dilution; top compound concentration of 100000 nM) titration curve using the following outlined procedure. To each well of a white ProxiPlus 384 well-plate, 100 nL of compound (1% DMSO in final assay volume of 10 μL) was dispensed, followed by the addition of 8 μL of 1× assay buffer (50 mM Bicine pH 8.0, 1 mM DTT, 0.004% Tween20, 0.01% BSA) containing 1.25 nM of Full-length (FL)-PRMT5-MEP50 enzyme complex (recombinant proteins from baculovirus-transfected Sf21 cells: FL-PRMT5; MW=[…] and FL-MEP50; MW=38614) and 1 μL of 150 μM S-(5′-Adenosyl)-L-Methionine Chloride (SAM). Plates were sealed and placed in a 37° C. humidified chamber for a 60 minutes pre-incubation with compound. Subsequently, each reaction was initiated by the addition of 1 μL 1× assay buffer containing 750 nM biotinylated H4R3(Mel) peptide. The final reaction in each well of 10 μL consists of 1.0 nM PRMT5-MEP50, 75 nM biotinylated-peptide, and 15 μM SAM. Methylation reactions proceeded for 150 minutes in a sealed plate at 37° C. Reactions were immediately quenched by the addition of 1 μL of 5% formic acid. Plates were then frozen and shipped to SAMDI™ Tech Inc. to determine the percent conversion from H4R3(Mel) to H4R3(Me2). Dose-response curves were generated by plotting percent effect (% product conversion; Y-axis) vs. Log 10 compound concentrations (X-axis). EC50 values were determined by non-linear regression according to models for either sigmoidal (4 parameters) or biphasic (7 parameters) dose-response curves.

[1] = one EC50: 4 parameters single site sigmoidal model, EC50 1: first value of 7 parameters biphasic model, read-out: Enzyme Methylation Assay (EC50 or EC50 1)
[2] = second EC50 of 7 parameters biphasic model, read-out: Enzyme Methylation Assay (EC50 2)

T1 sequence (O14744 whole entry): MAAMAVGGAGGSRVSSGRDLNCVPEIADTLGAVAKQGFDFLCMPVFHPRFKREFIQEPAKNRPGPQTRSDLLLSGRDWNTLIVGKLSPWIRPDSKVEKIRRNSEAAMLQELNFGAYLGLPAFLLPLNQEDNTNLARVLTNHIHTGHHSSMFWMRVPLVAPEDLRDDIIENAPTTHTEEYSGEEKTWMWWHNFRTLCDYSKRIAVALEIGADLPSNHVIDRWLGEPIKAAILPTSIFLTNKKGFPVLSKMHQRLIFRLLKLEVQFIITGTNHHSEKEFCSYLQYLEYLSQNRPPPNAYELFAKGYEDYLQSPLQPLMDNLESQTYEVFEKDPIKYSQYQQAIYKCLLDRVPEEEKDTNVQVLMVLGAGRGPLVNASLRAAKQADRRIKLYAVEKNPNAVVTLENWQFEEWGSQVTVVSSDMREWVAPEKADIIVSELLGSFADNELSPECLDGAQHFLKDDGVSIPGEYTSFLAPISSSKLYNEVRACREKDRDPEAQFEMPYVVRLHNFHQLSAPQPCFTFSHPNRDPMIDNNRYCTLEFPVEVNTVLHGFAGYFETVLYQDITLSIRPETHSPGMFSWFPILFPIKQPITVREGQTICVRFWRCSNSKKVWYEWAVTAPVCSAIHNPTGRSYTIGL
T1 sequence (Q9BQA1 whole entry partner): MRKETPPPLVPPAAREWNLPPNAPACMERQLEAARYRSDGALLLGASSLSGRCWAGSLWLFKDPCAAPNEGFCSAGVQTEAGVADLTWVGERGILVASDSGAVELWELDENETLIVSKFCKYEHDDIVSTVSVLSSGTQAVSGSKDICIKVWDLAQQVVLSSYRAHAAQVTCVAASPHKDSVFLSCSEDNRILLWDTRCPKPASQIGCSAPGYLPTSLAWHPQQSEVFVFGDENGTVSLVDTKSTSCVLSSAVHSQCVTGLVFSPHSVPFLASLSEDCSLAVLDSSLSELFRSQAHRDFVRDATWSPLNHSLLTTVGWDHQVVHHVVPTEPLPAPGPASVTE

SMILES | EC50 [1] [nM] | EC50 [2] [nM]
Cc1nc(N)c2c(F)cn([C@@H]3O[C@@H]4[C@H](Cc5ccc6cc(F)c(N)nc6c5)CC[C@]4(O)[C@H]3O)c2n1 [Example 44, (2R,3R,3aS,6S,6aR)-6-((2-amino-3-fluoroquinolin-7-yl)methyl)-2-(4-amino-5-fluoro-2-methyl-7H-pyrrolo[2,3-d]pyrimidin-7-yl)hexahydro-3aH-cyclopenta[b]furan-3,3a-diol 2,2,2-trifluoroacetate] | 0.4 | –
Nc1nc2cc(C[C@@H]3CC[C@@]4(O)[C@@H]3O[C@@H](n3ccc5c(N)nc(Cl)nc53)[C@@H]4O)ccc2cc1F [Example 48, (2R,3R,3aS,6S,6aR)-2-(4-amino-2-chloro-7H-pyrrolo[2,3-d]pyrimidin-7-yl)-6-[(2-amino-3-fluoroquinolin-7-yl)methyl]hexahydro-3aH-cyclopenta[b]furan-3,3a-diol] | 0.5 | –
Nc1nc2cc(O[C@H]3CC[C@@]4(O)[C@@H]3O[C@@H](n3cc(-c5ccccc5)c5c(N)ncnc53)[C@@H]4O)ccc2cc1Br [Example 49, (2R,3R,3aS,6S,6aR)-6-[(2-amino-3-bromoquinolin-7-yl)oxy]-2-(4-amino-5-phenyl-7H-pyrrolo[2,3-d]pyrimidin-7-yl)hexahydro-3aH-cyclopenta[b]furan-3,3a-diol] | 0.5 | –
Nc1nc2cc(C[C@@H]3CC[C@@]4(O)[C@@H]3O[C@@H](n3cc(C(F)F)c5c(N)ncnc53)[C@@H]4O)ccc2cc1F [Example 51, (2R,3R,3aS,6S,6aR)-2-[4-amino-5-(difluoromethyl)-7H-pyrrolo[2,3-d]pyrimidin-7-yl]-6-[(2-amino-3-fluoroquinolin-7-yl)methyl]hexahydro-3aH-cyclopenta[b]furan-3,3a-diol] | 1.2 | –
Nc1nc2cc(O[C@H]3CC[C@@]4(O)[C@@H]3O[C@@H](n3cc(C5CC5)c5c(N)ncnc53)[C@@H]4O)ccc2cc1Br [Example 52, (2R,3R,3aS,6S,6aR)-6-[(2-amino-3-bromoquinolin-7-yl)oxy]-2-(4-amino-5-cyclopropyl-7H-pyrrolo[2,3-d]pyrimidin-7-yl)hexahydro-3aH-cyclopenta[b]furan-3,3a-diol] | 0.5 | –
Nc1nc2cc(C[C@H]3[C@H]4O[C@@H](n5cc(F)c6c(N)ncnc65)[C@H](O)[C@@]4(O)C[C@@H]3F)ccc2cc1F [Example 55, (2R,3R,3aS,5S,6S,6aR)-2-(4-amino-5-fluoro-7H-pyrrolo[2,3-d]pyrimidin-7-yl)-6-[(2-amino-3-fluoroquinolin-7-yl)methyl]-5-fluorohexahydro-3aH-cyclopenta[b]furan-3,3a-diol, 2,2,2-trifluoroethanol] | 0.5 | 191
Nc1ncnc2c1ccn2[C@@H]1O[C@@H]2[C@@H](Oc3ccc4ccc(NCC(F)(F)F)nc4c3)CC[C@]2(O)[C@H]1O [Example 57, (2R,3R,3aS,6S,6aR)-2-(4-amino-7H-pyrrolo[2,3-d]pyrimidin-7-yl)-6-((2-((2,2,2-trifluoroethyl)amino)quinolin-7-yl)oxy)hexahydro-3aH-cyclopenta[b]furan-3,3a-diol] | 0.7 | 143
Nc1ncnc2c1ccn2[C@@H]1O[C@@H]2[C@@H](Oc3ccc4ccc(NCC5CC5)nc4c3)CC[C@]2(O)[C@H]1O [Example 58, (2R,3R,3aS,6S,6aR)-2-(4-amino-7H-pyrrolo[2,3-d]pyrimidin-7-yl)-6-((2-((cyclopropylmethyl)amino)quinolin-7-yl)oxy)hexahydro-3aH-cyclopenta[b]furan-3,3a-diol] | 0.4 | –
Nc1nc2cc(C[C@@H]3CC[C@@]4(O)[C@@H]3O[C@@H](n3cc(F)c5c(N)ncnc53)[C@@H]4O)ccc2cc1F [Example 59, (2R,3R,3aS,6S,6aR)-6-((2-amino-3-fluoroquinolin-7-yl)methyl)-2-(4-amino-5-fluoro-7H-pyrrolo[2,3-d]pyrimidin-7-yl)hexahydro-3aH-cyclopenta[b]furan-3,3a-diol] | 0.6 | –
Cc1cn([C@@H]2O[C@@H]3[C@@H](Oc4ccc5cc(Br)c(N)nc5c4)CC[C@]3(O)[C@H]2O)c2ncnc(N)c12 [Example 60, (2R,3R,3aS,6S,6aR)-6-((2-amino-3-bromoquinolin-7-yl)oxy)-2-(4-amino-5-methyl-7H-pyrrolo[2,3-d]pyrimidin-7-yl)hexahydro-3aH-cyclopenta[b]furan-3,3a-diol] | 0.4 | –
Cc1nc(N)c2ccn([C@@H]3O[C@@H]4[C@H](Cc5ccc6cc(Br)c(N)nc6c5)CC[C@]4(O)[C@H]3O)c2n1 [Example 61, (2R,3R,3aS,6S,6aR)-2-(4-amino-2-methyl-7H-pyrrolo[2,3-d]pyrimidin-7-yl)-6-((2-amino-3-bromoquinolin-7-yl)methyl)hexahydro-3aH-cyclopenta[b]furan-3,3a-diol] | 0.5 | –
Cc1cn([C@@H]2O[C@@H]3[C@H](Cc4ccc5cc(F)c(N)nc5c4)CC[C@]3(O)[C@H]2O)c2ncnc(N)c12 [Example 62, (2R,3R,3aS,6S,6aR)-6-((2-amino-3-fluoroquinolin-7-yl)methyl)-2-(4-amino-5-methyl-7H-pyrrolo[2,3-d]pyrimidin-7-yl)hexahydro-3aH-cyclopenta[b]furan-3,3a-diol 2,2,2-trifluoroacetate] | 0.5 | –
Cc1nc(N)c2ccn([C@@H]3O[C@@H]4[C@@H](Oc5ccc6cc(Br)c(N)nc6c5)CC[C@]4(O)[C@H]3O)c2n1 [Example 63, (2R,3R,3aS,6S,6aR)-2-(4-amino-2-methyl-7H-pyrrolo[2,3-d]pyrimidin-7-yl)-6-((2-amino-3-bromoquinolin-7-yl)oxy)hexahydro-3aH-cyclopenta[b]furan-3,3a-diol] | 0.4 | –

The remaining compounds from weak to strong by EC50 [1], led by results:

EC50 [1] [nM] | EC50 [2] [nM] | SMILES
0.4 | – | Nc1nc2cc(C[C@@H]3CC[C@@]4(O)[C@@H]3O[C@@H](n3cc(C(F)F)c5c(N)ncnc53)[C@@H]4O)ccc2cc1Br [Example 43, (2R,3R,3aS,6S,6aR)-6-[(2-amino-3-bromoquinolin-7-yl)methyl]-2-[4-amino-5-(difluoromethyl)-7H-pyrrolo[2,3-d]pyrimidin-7-yl]hexahydro-3aH-cyclopenta[b]furan-3,3a-diol]
0.3 | – | Nc1nc2cc(C[C@@H]3CC[C@@]4(O)[C@@H]3O[C@@H](n3ccc5c(N)nc(F)nc53)[C@@H]4O)ccc2cc1F [Example 45, (2R,3R,3aS,6S,6aR)-2-(4-amino-2-fluoro-7H-pyrrolo[2,3-d]pyrimidin-7-yl)-6-((2-amino-3-fluoroquinolin-7-yl)methyl)hexahydro-3aH-cyclopenta[b]furan-3,3a-diol]
0.3 | – | Nc1nc2cc(C[C@H]3[C@H]4O[C@@H](n5ccc6c(N)ncnc65)[C@H](O)[C@@]4(O)CC3(F)F)ccc2cc1F [Example 53, (2R,3R,3aS,6S,6aR)-6-[(2-amino-3-fluoroquinolin-7-yl)methyl]-2-(4-amino-7H-pyrrolo[2,3-d]pyrimidin-7-yl)-5,5-difluorohexahydro-3aH-cyclopenta[b]furan-3,3a-diol]
0.3 | – | Nc1nc2cc(C[C@H]3[C@H]4O[C@@H](n5ccc6c(N)ncnc65)[C@H](O)[C@@]4(O)C[C@@H]3F)ccc2cc1F [Example 54, (2R,3R,3aS,5S,6S,6aR)-6-[(2-amino-3-fluoroquinolin-7-yl)methyl]-2-(4-amino-7H-pyrrolo[2,3-d]pyrimidin-7-yl)-5-fluorohexahydro-3aH-cyclopenta[b]furan-3,3a-diol]
0.3 | – | Cc1cn([C@@H]2O[C@@H]3[C@H](Cc4ccc5cc(Cl)c(N)nc5c4)CC[C@]3(O)[C@H]2O)c2ncnc(N)c12 [Example 66, (2R,3R,3aS,6S,6aR)-6-((2-amino-3-chloroquinolin-7-yl)methyl)-2-(4-amino-5-methyl-7H-pyrrolo[2,3-d]pyrimidin-7-yl)hexahydro-3aH-cyclopenta[b]furan-3,3a-diol]
0.2 | – | Nc1nc2cc(C[C@@H]3CC[C@@]4(O)[C@@H]3O[C@@H](n3ccc5c(N)nc(Cl)nc53)[C@@H]4O)ccc2cc1Cl [Example 47, (2R,3R,3aS,6S,6aR)-2-(4-amino-2-chloro-7H-pyrrolo[2,3-d]pyrimidin-7-yl)-6-[(2-amino-3-chloroquinolin-7-yl)methyl]hexahydro-3aH-cyclopenta[b]furan-3,3a-diol]
0.2 | – | Nc1nc2cc(O[C@H]3CC[C@@]4(O)[C@@H]3O[C@@H](n3cc(F)c5c(N)ncnc53)[C@@H]4O)ccc2cc1Br [Example 56, (2R,3R,3aS,6S,6aR)-6-((2-amino-3-bromoquinolin-7-yl)oxy)-2-(4-amino-5-fluoro-7H-pyrrolo[2,3-d]pyrimidin-7-yl)hexahydro-3aH-cyclopenta[b]furan-3,3a-diol]
